# Measured values published in patent US6617314B2, “Injectable formulations of avermectins and milbemycins” (Bayer Aktiengesellschaft, priority 1996, dated 2003).
# Experiment: solubility of ivermectin in solvents
# Type: physicochemical
# Source text: The solubility of ivermectin in benzyl alcohol is >40% by weight and in castor oil ˜4% by weight.
substance,measurement,setting,value
"22,23-dihydroavermectin B1 [ivermectin]",solubility in benzyl alcohol,solvent benzyl alcohol,> 40 % by weight
same,solubility in castor oil,solvent castor oil,~4 % by weight
